# In US20220220095A1, “N-((HETEROARYL)METHYL)-1-TOSYL-1H-PYRAZOLE-3-CARBOXAMIDE DERIVATIVES AS Kv3 POTASSIUM CHANNEL ACTIVATORS FOR TREATING NEUROLOGICAL AND [sequence] DISORDERS” (H. Lundbeck A/S, priority 2019, published 2022):
# Target: T1, hKv3.1b (Homo sapiens, UniProt P48547)
# T1 construct: expressed in transfected cells
# T1 sequence (P48547 1-585 isoform P48547-2): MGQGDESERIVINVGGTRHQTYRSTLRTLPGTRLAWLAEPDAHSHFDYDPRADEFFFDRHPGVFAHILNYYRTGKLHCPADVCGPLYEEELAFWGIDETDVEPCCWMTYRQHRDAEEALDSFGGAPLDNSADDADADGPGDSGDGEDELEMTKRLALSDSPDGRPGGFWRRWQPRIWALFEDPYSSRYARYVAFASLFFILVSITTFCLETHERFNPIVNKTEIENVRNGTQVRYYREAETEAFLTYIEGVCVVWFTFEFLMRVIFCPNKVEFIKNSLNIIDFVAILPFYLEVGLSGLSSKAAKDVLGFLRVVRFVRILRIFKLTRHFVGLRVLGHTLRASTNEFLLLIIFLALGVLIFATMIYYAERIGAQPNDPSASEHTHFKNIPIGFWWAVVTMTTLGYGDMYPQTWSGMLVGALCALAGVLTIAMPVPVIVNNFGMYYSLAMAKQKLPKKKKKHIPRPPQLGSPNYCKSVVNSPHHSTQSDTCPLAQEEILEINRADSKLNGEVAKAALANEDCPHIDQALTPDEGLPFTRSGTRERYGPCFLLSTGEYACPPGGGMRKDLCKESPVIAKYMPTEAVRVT
# Assay: Automated whole-cell patch-clamp (QPatch-16x) on HEK-293 cells stably expressing hKv3.1b: shift of voltage threshold for channel activation
# Assay type: cell-based
# Conditions: HEK-293 hKv3.1b; for ECdelta5mV: concentration needed to shift the threshold 5 mV, read out from fitted concentration response curve; for Max Delta threshold: maximum absolute shift of activation threshold to more hyperpolarized potentials at the tested concentrations (0.37, 1.11, 3.33, 10, 30 μM)
# Experimental: HEK-293 cells stably expressing hKv3.1b was used for the experiments. Cells were cultured in DMEM medium supplemented with 10% Fetal Bovine Serum, 100 ug/mL Geneticidin and 100 u/mL Penicillin/Streptomycin (all from Gibco). Cells were grown to 80-90% confluency at 37° C. and 5% CO2. On the day of the experiment the cells were detached from the tissue culture flasks by Detachin and resuspended in serum free medium containing 25 mM HEPES and transferred to the cell hotel of the QPatch. The cells were used for experiments 0-5 hours after detachment.
# Patch-clamp recordings were performed using the automated recording system QPatch-16x (Sophion Bioscience, Denmark). Cells were centrifuged, SFM removed and the cells were resuspended in extracellular buffer containing (in mM): 145 NaCl, 4 KCl, 1 MgCl2, 2 CaCl2, 10 HEPES and 10 glucose (added fresh on the day of experiment); pH 7.4 adjusted with NaOH, 305 mOsm adjusted with sucrose.
# Single cell whole-cell recordings were carried out using an intracellular solution containing (in mM): 120 KCl, 32.25/10 KOH/EGTA, 5.374 CaCl2, 1.75 MgCl2, 10 HEPES, 4 Na2ATP (added fresh on the day), pH 7.2 adjusted with KOH, […] adjusted with sucrose. Cell membrane potentials were held at −80 mV and currents were evoked by voltage steps (200 ms duration) from −70 mV to +10 mV (in 10 mV increments).
# Leak subtraction protocol was applied at −33% of the sweep amplitude, and serial resistance values were constantly monitored.
# Any cell where serial resistance exceeded 25 MOhm, membrane resistance less than 200 MOhm or current size at −10 mV less than 200 pA was eliminated from the subsequent analysis.
# Data analysis was performed using Sophion's QPatch assay software in combination with Microsoft Excel™ (Redmond, Wash., USA).
# Current voltage relationships were plotted from the peak current at the individual voltage steps normalized to the vehicle addition at 10 mV. The voltage threshold for channel activation was defined as 5% activation of the peak current at 10 mV in presence of vehicle. The activity of the compounds was described as the ability to shift this current voltage relationship to more hyperpolarized potentials and is given as the maximum absolute shift possible at the tested concentrations (0.37, 1.11, 3.33, 10, 30 μM). Concentration response curves were plotted from the threshold shift at the individual concentrations and were fitted excel fit model 205 sigmodal dose-response model (fit=A+((B−A)/1+((C/x)^D)))), where A is the minimum value, B the maximum value, C the EC50 value and D the slope of the curve. The concentration needed to shift the threshold 5 mV was readout from this curve (ECdelta 5 mV).
ECdelta5mV [nM],Max Delta threshold [mV],SMILES
4000,19,"Cc1cnc(CNC(=O)c2ccn(S(=O)(=O)c3ccc(OC(F)(F)F)cc3)n2)cn1 [Compound 70, N-[(5-methylpyrazin-2-yl)methyl]-1-[4-(trifluoromethoxy)phenyl]sulfonyl-pyrazole-3-carboxamide]"
3500,27,"Cc1cnc(CNC(=O)c2ccn(S(=O)(=O)c3ccc(C(F)F)cc3)n2)cn1 [Compound 71, 1-[4-(difluoromethyl)phenyl]sulfonyl-N-[(5-methylpyrazin-2-yl)methyl]pyrazole-3-carboxamide]"
2400,33,"Cc1cnc(CNC(=O)c2ccn(S(=O)(=O)c3ccc(Cl)cc3F)n2)cn1 [Compound 73, 1-(4-chloro-2-fluoro-phenyl)sulfonyl-N-[(5-methylpyrazin-2-yl)methyl]pyrazole-3-carboxamide]"
3200,17,"COc1ccc(S(=O)(=O)n2ccc(C(=O)NCc3cnc(C)cn3)n2)cc1F [Compound 74, 1-(3-fluoro-4-methoxy-phenyl)sulfonyl-N-[(5-methylpyrazin-2-yl)methyl]pyrazole-3-carboxamide]"
3200,17,"Cc1cnc(CNC(=O)c2ccn(S(=O)(=O)c3cccc(Cl)c3)n2)cn1 [Compound 75, 1-(3-chlorophenyl)sulfonyl-N-[(5-methylpyrazin-2-yl)methyl]pyrazole-3-carboxamide]"
1500,25,"Cc1cnc(CNC(=O)c2ccn(S(=O)(=O)c3ccc(Cl)cc3)n2)cn1 [Compound 76, 1-(4-chlorophenyl)sulfonyl-N-[(5-methylpyrazin-2-yl)methyl]pyrazole-3-carboxamide]"
1100,29,"Cc1ccc(S(=O)(=O)n2ccc(C(=O)NCc3cnc(C)cn3)n2)c(C)c1 [Compound 77, 1-(2,4-dimethylphenyl)sulfonyl-N-[(5-methylpyrazin-2-yl)methyl]pyrazole-3-carboxamide]"
3000,23,"Cc1cnc(CNC(=O)c2ccn(S(=O)(=O)c3ccc(C(F)(F)F)cc3)n2)cn1 [Compound 78, N-[(5-methylpyrazin-2-yl)methyl]-1-[4-(trifluoromethyl)phenyl]sulfonyl-pyrazole-3-carboxamide]"
990,32,"Cc1cnc(CNC(=O)c2ccn(S(=O)(=O)c3ccc(C4CC4)cc3)n2)cn1 [Compound 79, 1-(4-cyclopropylphenyl)sulfonyl-N-[(5-methylpyrazin-2-yl)methyl]pyrazole-3-carboxamide]"
1500,31,"Cc1ccc(S(=O)(=O)n2ccc(C(=O)NCc3cnc(C)cn3)n2)c(F)c1 [Compound 80, 1-(2-fluoro-4-methyl-phenyl)sulfonyl-N-[(5-methylpyrazin-2-yl)methyl]pyrazole-3-carboxamide]"

# Continued, compound first:
SMILES,ECdelta5mV [nM],Max Delta threshold [mV]
"Cc1ccc(S(=O)(=O)n2ccc(C(=O)NCc3cn(C)cn3)n2)cc1 [Compound 53, 1-(4-methylbenzene-1-sulfonyl)-N-[(1-methyl-1H-imidazol-4-yl)methyl]-1H-pyrazole-3-carboxamide]",1900,20
"Cc1ccc(S(=O)(=O)n2ccc(C(=O)NCc3cncnc3)n2)cc1 [Compound 54, 1-(4-methylbenzene-1-sulfonyl)-N-[(pyrimidin-5-yl)methyl]-1H-pyrazole-3-carboxamide]",2400,21
"Cc1ccc(S(=O)(=O)n2ccc(C(=O)NCc3ccno3)n2)cc1 [Compound 55, 1-(4-methylbenzene-1-sulfonyl)-N-[(1,2-oxazol-5-yl)methyl]-1H-pyrazole-3-carboxamide]",1800,20
"Cc1ccc(S(=O)(=O)n2ccc(C(=O)NCc3ncon3)n2)cc1 [Compound 57, 1-(4-methylbenzene-1-sulfonyl)-N-[(1,2,4-oxadiazol-3-yl)methyl]-1H-pyrazole-3-carboxamide]",4900,13
"Cc1ccc(S(=O)(=O)n2ccc(C(=O)NCc3ccon3)n2)cc1 [Compound 58, 1-(4-methylbenzene-1-sulfonyl)-N-[(1,2-oxazol-3-yl)methyl]-1H-pyrazole-3-carboxamide]",2000,17
"Cc1ccc(S(=O)(=O)n2ccc(C(=O)NCc3nccs3)n2)cc1 [Compound 59, 1-(4-methylbenzene-1-sulfonyl)-N-[(1,3-thiazol-2-yl)methyl]-1H-pyrazole-3-carboxamide]",3000,14
"Cc1ccc(S(=O)(=O)n2ccc(C(=O)NCc3ncn(C)n3)n2)cc1 [Compound 60, 1-(4-methylbenzene-1-sulfonyl)-N-[(1-methyl-1H-1,2,4-triazol-3-yl)methyl]-1H-pyrazole-3-carboxamide]",2900,18
"Cc1ccc(S(=O)(=O)n2ccc(C(=O)NCc3nc(C)cs3)n2)cc1 [Compound 61, 1-(4-methylbenzene-1-sulfonyl)-N-[(4-methyl-1,3-thiazol-2-yl)methyl]-1H-pyrazole-3-carboxamide]",2000,19
"Cc1ccc(S(=O)(=O)n2ccc(C(=O)NCc3cnn(C)c3)n2)cc1 [Compound 62, 1-(4-methylbenzene-1-sulfonyl)-N-[(1-methyl-1H-pyrazol-4-yl)methyl]-1H-pyrazole-3-carboxamide]",1600,25
"COc1ccc(S(=O)(=O)n2ccc(C(=O)NCc3cccnc3)n2)cc1 [Compound 64, 1-(4-methoxyphenyl)sulfonyl-N-(3-pyridylmethyl)pyrazole-3-carboxamide]",1600,24
"Cc1cnc(CNC(=O)c2ccn(S(=O)(=O)c3ccc(OC(F)F)cc3)n2)cn1 [Compound 65, 1-[4-(difluoromethoxy)phenyl]sulfonyl-N-[(5-methylpyrazin-2-yl)methyl]pyrazole-3-carboxamide]",3600,25
"Cc1cnc(CNC(=O)c2ccn(S(=O)(=O)c3ccc(F)cc3C)n2)cn1 [Compound 66, 1-(4-fluoro-2-methyl-phenyl)sulfonyl-N-[(5-methylpyrazin-2-yl)methyl]pyrazole-3-carboxamide]",2400,31
"Cc1cnc(CNC(=O)c2ccn(S(=O)(=O)c3ccc(Cl)cc3C)n2)cn1 [Compound 67, 1-(4-chloro-2-methyl-phenyl)sulfonyl-N-[(5-methylpyrazin-2-yl)methyl]pyrazole-3-carboxamide]",1100,34
"COc1ccc(S(=O)(=O)n2ccc(C(=O)NCc3cnc(C)cn3)n2)c(F)c1 [Compound 68, 1-(2-fluoro-4-methoxy-phenyl)sulfonyl-N-[(5-methylpyrazin-2-yl)methyl]pyrazole-3-carboxamide]",2400,42
"Cc1cnc(CNC(=O)c2ccn(S(=O)(=O)c3ccc(F)c(Cl)c3)n2)cn1 [Compound 69, 1-(3-chloro-4-fluoro-phenyl)sulfonyl-N-[(5-methylpyrazin-2-yl)methyl]pyrazole-3-carboxamide]",4600,16
